Results as given in patent US11065296B2, “Antimicrobial peptide, its analog and use” (City University of Hong Kong, priority 2018, dated 2021).
Peptide text beside a SMILES is read from it.

Columns and labels:
CpxR = assay: Quantitative real-time PCR; assay type: cell-based; conditions: E. tarda, Piscidin 7.5 μM, 1 hour
Excerpt: (§1) Results are expressed as 2^(−Delta Delta C (T)). […] Results are expressed as 2^(−Delta Delta C (T)).
Each group has 6 biological replicates. […] Gene-specific primers were designed with Primer-BLAST (NCBI).

E. coli [1] = assay type: cell-based
E. coli PQ37 = assay: SOS induction (chromotest); assay type: cell-based
Description: as §1
E. coli PQ37 (Genotype: Sfi A and Lac Z fusion, lac Z) was cultured in lysogeny broth (LB) that contained 57.2 μM of ampicillin overnight (37° C.) and subcultured through 20 dilutions on another day so that OD600 equals to 0.2-0.4. PQ37 was incubated in 0.3 ml AMP (3.4 μM) or Piscidin ([…], 3.77 μM) for 2 hours and then re-suspended in the same volume of Z-buffer (Na2HPO4.7H2O 16.1 g/l, NaH2PO4.2H2O 6.24 g/L, KCl 0.75 g/L, MgSO4.7H2O 0.246 g/L and b-mercaptoethanol 0.3% (v/v)) for carrying out a β-galactosidase assay (β-ga) and alkaline phosphatase assay (ap), respectively. The bacteria were lysed with 0.1 ml of 0.1% SDS and 0.15 ml of chloroform. For the β-ga assay, the reaction was started by adding 0.6 ml of ortho-Nitrophenyl-β-galactoside (ONPG; Catalog number 34055, ThermoFisher Scientific) for color development and then stopped with the addition of 2 ml of 1 M NaCO3 solution. For ap acsay, the reaction was started by adding 0.6 ml of para-Nitrophenylphosphate (PNPP; Catalog number 34045, ThermoFisher Scientific) for color development which was then terminated by the addition of 1 ml of 2 M HCl solution and 1 ml of 2 M Tri-HCl to restore the colour. The absorbance was read at 420 nm against a blank without bacteria. The induction factor (IF) was calculated as the ratio R(x)/R(0) (R(x)=β-g/ap determined for the tested peptide; R(0)=β-g/ap determined for the LB). Furacin (antibiotic) and Piscidin were chosen as the controls. Each experiment was performed in triplicate.

E. tarda = assay: Host resistance assay, Experiment Two: pre-injection 2 h before bacteria; assay type: in vivo, Medaka; conditions: injected 2 h prior to E. tarda
Description: FIG. 11A is a plot showing the effect of Peptide A on viability of cultured mammalian cells, incubated for 48 h in the presence of Peptide A at different concentrations (μg/ml), as determined by MTT assay. Cell viability represented as peptide treated cell numbers over medium-only control. Statistically significant difference as compared to controls (*: p<0.05, **: p<0.01, n=4). FIG. 11B is a plot showing the ability of Peptide A to protect medaka from lethal challenge of E. tarda ([…]). Medaka was injected with 1 μl of Peptide A (0.68 mM), with 1 μl of E. tarda (10^7 CFU/ml) and Peptide A (0.68 mM) mixture, or with E. tarda alone (1 μl of E. tarda:10^7 CFU/ml). […] 20 fish per group. Log-rank (Mantel-Cox) test was applied for the comparison of survival curves (**: p<0.01).
The efficacy of the synthesized AMP to protect medaka against infection was characterized using host resistance assays with intraperitoneal (i.p.) injection of bacteria using a micro-injection machine (PV820 Pneumatic PicoPump). In Experiment One, 80 medaka fish were used and divided into four groups (20 fish in each group, male, 6 months): (1) Group 1 was injected with only 1 μl of PBS in each fish; (2) Group 2 was injected with only 1 μl of novel AMP (0.68 mM) in each fish; (3) Group 3 was injected with 1 μl of bacteria (at a titer of 5×10^7 CFU/ml); and (4) bacteria and novel AMP were mixed for 5 min and then 1 μl of the mixture was injected into Group 4 (Bacteria: 5×10^7 CFU/ml, AMP: 0.68 mM). In Experiment Two, 60 fish were used and divided into three groups: each fish was injected with 1 μl of PBS, ampicillin (5.7 mM) or Peptide A (1.36 mM). The fish were anesthetized in MS222 for 30 s before microinjection. After two hours, 1 μl of bacteria (5×10^7 CFU/ml) was injected into the fish. All of the fishes were kept under a static condition of 26° C.±1° C., with 14:10 hrs of a light-dark cycle. The water was replaced every two days. The fish were fed three times each day. The number of dead fish was counted on a daily basis until two weeks after the injections.

E. coli [2] = assay: Antibacterial activities of the peptide analogs (relative OD600); assay type: cell-based
Excerpt: FIG. 10 is a plot showing the antibacterial activities of the peptide analogs on E. coli. C-amidation: C-terminus amidated Peptide A; B1: RIILRAQGALKI; B2: IRIILRAQGALK; B3: RIILR. Results expressed as relative OD600 compared to culture medium group (%) (*: p<0.05, **: p<0.01, n=3)

## CC(C)C[C@H](NC(=O)[C@H](Cc1ccc(O)cc1)NC(=O)[C@H](Cc1c[nH]cn1)NC(=O)[C@H](CCCCN)NC(=O)[C@H](CC(C)C)NC(=O)[C@H](C)NC(=O)[C@H](CC(C)C)NC(=O)[C@H](CCCCN)NC(=O)CNC(=O)[C@@H](NC(=O)[C@@H](NC(=O)[C@H](CCCCN)NC(=O)[C@@H](NC(=O)[C@H](CCC(=O)O)NC(=O)[C@H](C)NC(=O)[C@H](CCCCN)NC(=O)[C@H](CCCCN)NC(=O)[C@H](CC(C)C)NC(=O)[C@H](CC(C)C)NC(=O)[C@@H](NC(=O)[C@H](CCCNC(=N)N)NC(=O)[C@H](Cc1c[nH]c2ccccc12)NC(=O)CN)[C@@H](C)O)C(C)C)[C@@H](C)O)C(C)C)C(=O)O [Piscidin] (H-GWRTLLKKAEVKTVGKLALKHYL-OH; N-terminus and C-terminus assumed)
CpxR
  CpxR gene expression: no effect
E. coli [1]
  MIC for E. coli: 3.77 µM
E. coli PQ37; E. coli PQ37, 120 min, Peptide A 3.4 μM, Piscidin 3.77 μM
  SOS response (induction factor): no effect on SOS response

## CC1(C)S[C@@H]2[C@H](NC(=O)[C@H](N)c3ccccc3)C(=O)N2[C@H]1C(=O)O [Ampicillin, reference compound]
E. tarda; one day post injection, Peptide A 1.37 mM, Ampicillin 5.7 mM, 1 μl
  initial survival rate: about 45%
E. tarda; two weeks after infection
  effect on E. tarda infection / surviving fish: ineffective

## IRIILRAQGALK [Peptide B2, Peptide A with the C-terminal amino acid removed]
E. coli [2]
  antibacterial activity compared with Peptide A: reduce the antibacterial effect

## RIILRAQGALKI [Peptide B1, Peptide A with the N-terminal amino acid removed]
E. coli [2]
  antibacterial activity compared with Peptide A: reduce the antibacterial effect

## NC(=O)N/N=C/c1ccc([N+](=O)[O-])o1 [Furacin]
E. coli PQ37; E. coli, different doses of Furacin
  SOS response (expression of LacZ), positive control: dose-dependent expression of LacZ

## RIILR [Peptide B3]
E. coli [2]
  antibacterial activity compared with Peptide A: much weaker antibacterial activity
